Measurements taken from patent publication US20210254272A1, “TEXTILES HAVING ANTIMICROBIAL PROPERTIES” (Livinguard AG, priority 2015, published 2021).

Assay: Leaching test: 100 g fabric soaked in 10 liters stagnant distilled water, 3 days (72 hours)
Assay type: physicochemical
Procedure: (§1) The test procedure for leaching was as follows: 100 g (grams) of fabric as well as control fabrics were soaked in 10 liters of stagnant distilled water in a closed wide mouth jar. After 3 days (72 hours), the water samples were tested for leached substances as per standard analytical methods.
as §1, with “methods. A weight of 100 g fabric was chosen because in the preferred embodiment of the water filter as described further below, each filter comprises a strip of fabric with 210 g/m^2, 3 meters long and 0.16 meters wide, which corresponds to 100 g of fabric.” for “methods.”

polyglucosamine [chitosan]
Leaching of active ingredients (in ppm) (0.2% each in mixture (o.w.f), exhaust 80° C., 60 min, curing 180° C., 2 min, unwashed): 9 ppm
Leaching of active ingredients (in ppm) (0.5% each in mixture (o.w.f), exhaust 80° C., 60 min, curing 180° C., 2 min, unwashed): 12 ppm
Leaching of active ingredients (in ppm) (1.0% each in mixture (o.w.f), exhaust 80° C., 60 min, curing 180° C., 2 min, unwashed): 16 ppm
Leaching of active ingredients (in ppm) (exhaust 60° C., solution dosage 1% o.w.f, process time 60 min): 21 ppm
Leaching of active ingredients (in ppm) (exhaust 60° C., solution dosage 1% o.w.f, process time 90 min): 13 ppm
Leaching of active ingredients (in ppm) (exhaust 60° C., solution dosage 1% o.w.f, process time 120 min): 14 ppm
Leaching of active ingredients (in ppm) (exhaust 60° C., solution dosage 1% o.w.f, process time 180 min): 12 ppm
Leaching of active ingredients (in ppm) (exhaust 60° C., solution dosage 1% o.w.f, process time 240 min): 13 ppm
Leaching of active ingredients (in ppm) (exhaust 80° C., 1% o.w.f, 60 min, curing 170° C., curing dwell time 0.5 min): 28 ppm
Leaching of active ingredients (in ppm) (exhaust 80° C., 1% o.w.f, 60 min, curing 170° C., curing dwell time 1.0 min): 26 ppm
Leaching of active ingredients (in ppm) (exhaust 80° C., 1% o.w.f, 60 min, curing 170° C., curing dwell time 1.5 min): 20 ppm
Leaching of active ingredients (in ppm) (exhaust 80° C., 1% o.w.f, 60 min, curing 170° C., curing dwell time 2.0 min): 13 ppm
Leaching of active ingredients (in ppm) (exhaust 80° C., 1% o.w.f, 60 min, curing 170° C., curing dwell time 2.5 min): 18 ppm
Leaching of active ingredients (in ppm) (exhaust 80° C., 1% o.w.f, 60 min, curing 170° C., curing dwell time 3.0 min): 18 ppm
Leaching of active ingredients (in ppm) (exhaust 80° C., 1% o.w.f, 60 min, curing 180° C., curing dwell time 0.5 min): 21 ppm
Leaching of active ingredients (in ppm) (exhaust 80° C., 1% o.w.f, 60 min, curing 180° C., curing dwell time 1.0 min): 13 ppm
Leaching of active ingredients (in ppm) (exhaust 80° C., 1% o.w.f, 60 min, curing 180° C., curing dwell time 1.5 min): 14 ppm
Leaching of active ingredients (in ppm) (exhaust 80° C., 1% o.w.f, 60 min, curing 180° C., curing dwell time 2.0 min): 3 ppm
Leaching of active ingredients (in ppm) (exhaust 80° C., 1% o.w.f, 60 min, curing 180° C., curing dwell time 2.5 min): 12 ppm
Leaching of active ingredients (in ppm) (exhaust 80° C., 1% o.w.f, 60 min, curing 180° C., curing dwell time 3.0 min): 12 ppm
Leaching of active ingredients (in ppm) (exhaust 80° C., 1% o.w.f, 60 min, curing dwell time at 190° C. (title): 0.5 min): 20 ppm
Leaching of active ingredients (in ppm) (exhaust 80° C., 1% o.w.f, 60 min, curing dwell time at 190° C. (title): 1.0 min): 13 ppm
Leaching of active ingredients (in ppm) (exhaust 80° C., 1% o.w.f, 60 min, curing dwell time at 190° C. (title): 1.5 min): 12 ppm
Leaching of active ingredients (in ppm) (exhaust 80° C., 1% o.w.f, 60 min, curing dwell time at 190° C. (title): 2.0 min): 11 ppm
Leaching of active ingredients (in ppm) (exhaust 80° C., 1% o.w.f, 60 min, curing dwell time at 190° C. (title): 2.5 min): 25 ppm
Leaching of active ingredients (in ppm) (exhaust 80° C., 1% o.w.f, 60 min, curing dwell time at 190° C. (title): 3.0 min): 35 ppm
Leaching of active ingredients (in ppm) (exhaust 80° C., 60 min, dosage 1% o.w.f (test up to 5% o.w.f)): 2 ppm
Leaching of active ingredients (in ppm) (exhaust 80° C., 60 min, dosage 2% o.w.f): 17 ppm
Leaching of active ingredients (in ppm) (exhaust 80° C., 60 min, dosage 3% o.w.f): 41 ppm
Leaching of active ingredients (in ppm) (exhaust 80° C., 60 min, dosage 4% o.w.f): 42 ppm
Leaching of active ingredients (in ppm) (exhaust 80° C., 60 min, dosage 5% o.w.f): 72 ppm
Leaching of active ingredients (in ppm) (exhaust 80 ° C., solution dosage 1% o.w.f, process time 10 min): 37 ppm
Leaching of active ingredients (in ppm) (exhaust 80 ° C., solution dosage 1% o.w.f, process time 20 min): 25 ppm
Leaching of active ingredients (in ppm) (exhaust 80 ° C., solution dosage 1% o.w.f, process time 30 min): 21 ppm
Leaching of active ingredients (in ppm) (exhaust 80 ° C., solution dosage 1% o.w.f, process time 40 min): 16 ppm
Leaching of active ingredients (in ppm) (exhaust 80 ° C., solution dosage 1% o.w.f, process time 50 min): 12 ppm
Leaching of active ingredients (in ppm) (exhaust 80 ° C., solution dosage 1% o.w.f, process time 55 min): 5 ppm
Leaching of active ingredients (in ppm) (exhaust 80 ° C., solution dosage 1% o.w.f, process time 60 min): 3 ppm
Leaching of active ingredients (in ppm) (exhaust 80 ° C., solution dosage 1% o.w.f, process time 70 min): 2 ppm
Leaching of active ingredients (in ppm) (exhaust 80 ° C., solution dosage 1% o.w.f, process time 80 min): 5 ppm
Leaching of active ingredients (in ppm) (exhaust 80 ° C., solution dosage 1% o.w.f, process time 90 min): 8 ppm
limit on the quantity of the agent that can be adhered to the textile in a non-leaching or substantially non-leaching manner (from Experimental examples I.1 and I.4): about 0.2 % o.w.f.
Leaching of active ingredient (in ppm) (solution dosage 0.10% o.w.f, exhaust temperature 60° C., process time 60 min): 0 ppm
Leaching of active ingredient (in ppm) (solution dosage 0.10% o.w.f, exhaust temperature 65° C., process time 60 min): 0 ppm
Leaching of active ingredient (in ppm) (solution dosage 0.10% o.w.f, exhaust temperature 70° C., process time 60 min): 0 ppm
Leaching of active ingredient (in ppm) (solution dosage 0.10% o.w.f, exhaust temperature 75° C., process time 60 min): 0 ppm
Leaching of active ingredient (in ppm) (solution dosage 0.10% o.w.f, exhaust temperature 80° C., process time 60 min): 0 ppm
Leaching of active ingredient (in ppm) (solution dosage 0.10% o.w.f, exhaust temperature 85° C., process time 60 min): 1 ppm
Leaching of active ingredient (in ppm) (solution dosage 0.10% o.w.f, exhaust temperature 90° C., process time 60 min): 2 ppm
Leaching of active ingredient (in ppm) (solution dosage 0.10% o.w.f, exhaust temperature 95° C., process time 60 min): 2 ppm
Leaching of active ingredient (in ppm) (solution dosage 0.20% o.w.f, exhaust temperature 60° C., process time 60 min): 0 ppm
Leaching of active ingredient (in ppm) (solution dosage 0.20% o.w.f, exhaust temperature 65° C., process time 60 min): 0 ppm
Leaching of active ingredient (in ppm) (solution dosage 0.20% o.w.f, exhaust temperature 70° C., process time 60 min): 0 ppm
Leaching of active ingredient (in ppm) (solution dosage 0.20% o.w.f, exhaust temperature 75° C., process time 60 min): 0 ppm
Leaching of active ingredient (in ppm) (solution dosage 0.20% o.w.f, exhaust temperature 80° C., process time 60 min): 0 ppm
Leaching of active ingredient (in ppm) (solution dosage 0.20% o.w.f, exhaust temperature 85° C., process time 60 min): 2 ppm
Leaching of active ingredient (in ppm) (solution dosage 0.20% o.w.f, exhaust temperature 90° C., process time 60 min): 3 ppm
Leaching of active ingredient (in ppm) (solution dosage 0.20% o.w.f, exhaust temperature 95° C., process time 60 min): 4 ppm
Leaching of active ingredient (in ppm) (solution dosage 0.50% o.w.f, exhaust temperature 60° C., process time 60 min): 1 ppm
Leaching of active ingredient (in ppm) (solution dosage 0.50% o.w.f, exhaust temperature 65° C., process time 60 min): 1 ppm
Leaching of active ingredient (in ppm) (solution dosage 0.50% o.w.f, exhaust temperature 70° C., process time 60 min): 1 ppm
Leaching of active ingredient (in ppm) (solution dosage 0.50% o.w.f, exhaust temperature 75° C., process time 60 min): 1 ppm
Leaching of active ingredient (in ppm) (solution dosage 0.50% o.w.f, exhaust temperature 80° C., process time 60 min): 1 ppm
Leaching of active ingredient (in ppm) (solution dosage 0.50% o.w.f, exhaust temperature 85° C., process time 60 min): 4 ppm
Leaching of active ingredient (in ppm) (solution dosage 0.50% o.w.f, exhaust temperature 90° C., process time 60 min): 5 ppm
Leaching of active ingredient (in ppm) (solution dosage 0.50% o.w.f, exhaust temperature 95° C., process time 60 min): 7 ppm
Leaching of active ingredient (in ppm) (solution dosage 0.80% o.w.f, exhaust temperature 60° C., process time 60 min): 2 ppm
Leaching of active ingredient (in ppm) (solution dosage 0.80% o.w.f, exhaust temperature 65° C., process time 60 min): 2 ppm
Leaching of active ingredient (in ppm) (solution dosage 0.80% o.w.f, exhaust temperature 70° C., process time 60 min): 2 ppm
Leaching of active ingredient (in ppm) (solution dosage 0.80% o.w.f, exhaust temperature 75° C., process time 60 min): 3 ppm
Leaching of active ingredient (in ppm) (solution dosage 0.80% o.w.f, exhaust temperature 80° C., process time 60 min): 1 ppm
Leaching of active ingredient (in ppm) (solution dosage 0.80% o.w.f, exhaust temperature 85° C., process time 60 min): 7 ppm
Leaching of active ingredient (in ppm) (solution dosage 0.80% o.w.f, exhaust temperature 90° C., process time 60 min): 8 ppm
Leaching of active ingredient (in ppm) (solution dosage 0.80% o.w.f, exhaust temperature 95° C., process time 60 min): 9 ppm
Leaching of active ingredient (in ppm) (solution dosage 1.00% o.w.f, exhaust temperature 60° C., process time 60 min): 6 ppm
Leaching of active ingredient (in ppm) (solution dosage 1.00% o.w.f, exhaust temperature 65° C., process time 60 min): 6 ppm
Leaching of active ingredient (in ppm) (solution dosage 1.00% o.w.f, exhaust temperature 70° C., process time 60 min): 4 ppm
Leaching of active ingredient (in ppm) (solution dosage 1.00% o.w.f, exhaust temperature 75° C., process time 60 min): 3 ppm
Leaching of active ingredient (in ppm) (solution dosage 1.00% o.w.f, exhaust temperature 80° C., process time 60 min): 1.5 ppm
Leaching of active ingredient (in ppm) (solution dosage 1.00% o.w.f, exhaust temperature 85° C., process time 60 min): 9 ppm
Leaching of active ingredient (in ppm) (solution dosage 1.00% o.w.f, exhaust temperature 90° C., process time 60 min): 11 ppm
Leaching of active ingredient (in ppm) (solution dosage 1.00% o.w.f, exhaust temperature 95° C., process time 60 min): 12 ppm
